Reference: patent US20030211469A1, “Inhibiting hepatitis c virus processing and replication” (priority 2003, published 2003)
Like-named read-outs stand apart in the source and are kept apart here.

Experiments:
HCV NS2/3 (810-1615BK) [1] = target: T1, HCV NS2/3 (810-1615BK) (Hepatitis C virus genotype 1b, UniProt P26663); format: biochemical, Hepatitis C virus (BK strain); settings: for NS2/3 Processed (% of Control): 5 mM final concentration of nucleoside analog; for inhibition at the maximum concentration tested: 5 mM; for inhibition at the maximum concentration tested / IC50: residual ATP approximately 1 mM; for IC50: titration, read-out: IC50, inhibition of NS2/3 processing
T1 construct: HCV residues 810-1615 of the BK strain; made in house; host or cells: in vitro translation in rabbit reticulocyte lysate from plasmid pCITE 810-1615BK
Method: (§1) HCV residues 810-1615 of the BK strain, which includes all of NS2 and most of NS3 (termed 810-1615BK), was produced from the plasmid pCITE 810-1615BK (a gift from Dr. Nicola La Monica) and has been described previously by Pieroni, et al., (1997) J. Virol. 71, 6373. Following plasmid linearization with BLP1, RNA was transcribed with T7 RNA polymerase and purified. Protein translation was in rabbit reticulocyte lysate, 30° C. for 40 minutes using [^35S]-methionine as a label. Translation was then blocked by the addition of cycloheximide (250 μM final) and the samples were immediately frozen on dry ice.
(§2) Prior to processing experiments, an aliquot of translated NS2/3 was thawed on ice. Processing of 810-1615BK was initiated by addition to room temperature solutions containing Triton X-100 at 1%, as described by Pieroni, et al., (1997) J. Virol. 71, 6373. The distribution of [^35S]-labeled proteins on dried gels was determined with a Phosphorimager (Molecular Dynamics). Product bands were quantified and expressed as a proportion of total signal in the gel lane so that variations in gel lane loading were normalized.

[2] = target: T2, NS2/3 fusion protein Ubi-849-1207J-BLA (UniProt P26662+P62593, S1165A); assay: Processing of NS2/3 fusion protein Ubi-849-1207J-BLA in reticulocyte lysate; format: biochemical, Hepatitis C virus (J strain)
T2 construct: NS2/3 residues 849-1207 (J strain); ubiquitin (N, cleaved yes); made in house; host or cells: in vitro translation in rabbit reticulocyte lysate from plasmid pM3A
Excerpt: The plasmid pM3A, derived from pCDNA (Invitrogen), encodes a fusion protein termed Ubi-849-1207J-BLA that contains ubiquitin at its N-terminus, followed by NS2/3 residues 849-1207 (J strain) linked to bacterial TEM-1 β-lactamase at the C-terminus. […] RNA synthesis for this construct is driven by the T7 promoter, and RNA was separately prepared for translation as in Example 1. Upon translation in rabbit reticulocyte lysate, the ubiquitin is immediately cleaved from the protein by cellular ubiquitin hydrolases. (Hochstrasser, (1996) Annual Review of Genetics 30, 405.)
The cleavable linkage (SEQ. ID. NO. 1) is present as ubiquitin↓ArgHisGlySerGluPhe-NS2/3. […] Translations were limited to 30 minutes for that reason. Quantification of processing at room temperature was by comparison of samples prepared immediately after addition of cycloheximide with later time samples.

HCV NS2/3 (810-1615BK) [3] = format: biochemical, Hepatitis C virus (BK strain); settings: for NS2/3 Processed (% of Control): present during synthesis and processing, 30 minutes
Method: as §1, §2
NS2/3 processing reactions were performed with 810-1615BK. […] (Darke, et al., (1999) J. Biol. Chem. 274, 34511.) Inhibitors were dissolved in DMSO and protected from light. Dilutions were in DMSO, such that the final concentration of DMSO was 2% for in vitro experiments and 1% for cell-based assays. […] (Hu, et al., (1996) P.N.A.S. USA 93, 1060; Thulasiraman, et al., (1996) Biochemistry 35, 13443 (1996), Schneider, et al., (1996) P.N.A.S. USA 93, 14536.)
to the data, where a is the minimal level of fractional activity (tending to 0), a+b is the maximal level (tending to 1), x is the concentration of inhibitor, c is the IC50 and d is a slope coefficient. […] Values given are the average of two determinations.

[4] = tested on: ubiquitin-ubiquitin-ubiquitin-NS2/3-β-lactamase in Jurkat cells; assay: Cell-based NS2/3 cleavage assay, Jurkat cells, β-lactamase/CCF2 readout; design: species or system Hepatitis C virus; settings: for IC50: read-out: IC50, NS2/3 cleavage in cells, 5 hours treatment, 460 nm/530 nm ratio
Method: Inhibitor treatment was for 5 hours, followed by addition of cycloheximide to stop protein synthesis (30 minutes) and subsequent addition of the β-lactamase substrate, CCF2. After 2 hours, β-lactamase activity was quantified by fluorescence readings (460 nm/530 nm ratio). Lower 460 nm/530 nm ratios indicate inhibition of NS2/3 cleavage.
Through the use of a neomycin-selectable transfection vector, stable expression of NS2/3 in Jurkat cells was obtained. The plasmid pUbBla3X-NS2/3-3A conferring neomycin (G418) resistance, expresses a fusion of the NS2/3 protein with 3 ubiquitin domains appended to the N-terminus and β-lactamase at the C-terminus. The complete uncleaved protein has an in vivo half-life estimated to be 5-10 minutes.
The plasmid pUbBla3X NS2/3-3A was transfected into Jurlcat cells. The CMV promoter-driven ORF of the plasmid encodes a 91 kDa protein, ubiquitin-ubiquitin-ubiquitin-NS2/3-β-lactamase, with the C-termini of the 3 ubiquitin domains rendered non-cleaveable to ubiquitin-C-terminal hydrolases (ubiquitin C-terminal sequence ArgLeuArgGlyVal, SEQ. ID. NO. 2). The NS2/3 region includes HCV residues 849-1207. The β-lactamase domain is TEM-1 from E. coli. Expression of the P-lactamase moiety is readily detected with the fluorogenic, cell-penneant substrate, CCF2. (Zlokarnik, et al., (1998) Scienice 279, 84.) Transfectants were sorted by FACS using treatment with CCF2 to indicate β-lactamase expression (Zlokarnik, et al., (1998) Science 279, 84), and individual clones were grown under G418 selection. The full fusion protein expressed is highly unstable to ubiquitin-directed proteosomal degradation due to its ubiquitin N-terminal tag, while the C-terminal product of NS2/3 cleavage, NS3-β-lactamase, is stable for hours. Thus, build-up in the cells of O-lactamase activity, as indicated by CCF2 hydrolysis (high 460 nm1530 nm ratio) is indicative of successful NS2/3 cleavage, and suppression of P-lactamase activity indicates NS2/3 inhibition.
(See, Grakoui, et al., (1993) P.N.A.S. USA 90, 10583, Selby, et al., (1993) J. Gen. Virol. 74, 1103, fijikata, et al., (1993) J. Virol. 67, 4665, Santolini, et al., (1995) J. Viol. 69, 7461, D'Souza, et al., (1994) J. Gen. Virol. 75, 3469, and Pieroni, et al., (1997) J. Virol. 71, 6373.) NS2/3 self-cleavage separates the destabilizing ubiquitin degradation signal at the N-terminus from the NS3-O-lactamase C-terminal product, thus stabilizing the β-lactamase activity within the cell.

[5] = titration, 810-1615BK, average of two determinations

Nc1ncnc2c1ncn2[C@@H]1O[C@H](COP(=O)(O)OP(=O)(O)OP(O)(O)=S)[C@@H](O)[C@H]1O [ATPγS]
NS2/3 Processed (% of Control) (HCV NS2/3 (810-1615BK) [1]): 24 % of Control
inhibition at the maximum concentration tested (HCV NS2/3 (810-1615BK) [1]): 77%
IC50 (HCV NS2/3 (810-1615BK) [1]): 2000 µM
Inhibition of NS2/3 processing, J-strain fusion protein [2]: Inhibition by ATPγS was also observed

C[C@@H]1C[C@H]2O[C@@H]2/C=C\C=C\C(=O)Cc2c(Cl)c(O)cc(O)c2C(=O)O1 [Radicicol]
EC50 (HCV NS2/3 (810-1615BK) [3]; [5]): 0.22 ± 0.12 µM
Maximum Inhibition (%) (HCV NS2/3 (810-1615BK) [3]; [5]): 51%
inhibition at the highest concentrations tested [4]: nearly complete
IC50 [4]: 0.013 µM

CO[C@H]1[C@@H](OC)C[C@H](C)[C@@H](OC)C2=CC(=O)C=C(NC(=O)/C(C)=C/C=C\[C@H](OC)[C@@H](OC(N)=O)/C(C)=C/[C@@H]1C)C2=O [Herbimycin A, herbimycin A]
NS2/3 Processed (% of Control) (HCV NS2/3 (810-1615BK) [3]; 1 μM): 38 % of Control
NS2/3 Processed (% of Control) (HCV NS2/3 (810-1615BK) [3]; 10 μM): 22 % of Control

Nc1ncnc2c1ncn2[C@@H]1O[C@H](COP(=O)(O)OP(=O)(O)NP(=O)(O)O)[C@@H](O)[C@H]1O [AMP-PNP]
NS2/3 Processed (% of Control) (HCV NS2/3 (810-1615BK) [1]): 40 % of Control
inhibition at the maximum concentration tested (HCV NS2/3 (810-1615BK) [1]): 60%
IC50 (HCV NS2/3 (810-1615BK) [1]): 4000 µM

COC1=C2C[C@@H](C)C[C@H](OC)[C@H](O)[C@@H](C)/C=C(\C)[C@H](OC(N)=O)[C@@H](OC)/C=C\C=C(/C)C(=O)NC(=CC1=O)C2=O [Geldanamycin]
inhibition at the highest concentrations tested [4]: nearly complete
IC50 [4]: 0.04 µM
